Laboratory results as given in ChEMBL document CHEMBL1201862, “PubChem BioAssay data set” (2004).
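Following 48 hours of exposure in 96-well plates, responses at five concentrations were used to interpolate endpoints linearly. Here, GI50 denotes the concentration required for 50% inhibition of growth.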 Calls of active or inactive are those of the source. Cut-off read from the data, not from the text of the source: active = GI50 up to about 1.1 µM and inactive = higher.

Experiments:
Assay in all cases: inhibition of tumour cell growth, NCI panel, 48 h
M14 = test system: M14
SK-OV-3 = test system: SK-OV-3
SF-539 = test system: SF-539
NCI-H23 = test system: NCI-H23
HOP-62 = test system: HOP-62
U-251 = test system: U-251
HL-60 = test system: HL-60
MDA-MB-435 = test system: MDA-MB-435
SK-MEL-5 = test system: SK-MEL-5
UACC-62 = test system: UACC-62
A549 = test system: A549
SK-MEL-2 = test system: SK-MEL-2
MDA-MB-231 = test system: MDA-MB-231
COLO 205 = test system: COLO 205
IGROV-1 = test system: IGROV-1
HT-29 = test system: HT-29
ACHN = test system: ACHN
PC-3 = test system: PC-3
786-0 = test system: 786-0
MCF7 = test system: MCF7
BT-549 = test system: BT-549
OVCAR-5 = test system: OVCAR-5
K562 = test system: K562
NCI-H226 = test system: NCI-H226
UACC-257 = test system: UACC-257
Malme-3M = test system: Malme-3M
A498 = test system: A498
EKVX = test system: EKVX
SNB-19 = test system: SNB-19
OVCAR-4 = test system: OVCAR-4
NCI-H522 = test system: NCI-H522
HCT-116 = test system: HCT-116
SN12C = test system: SN12C
Hs-578T = test system: Hs-578T
DU-145 = test system: DU-145
SNB-75 = test system: SNB-75
NCI-H460 = test system: NCI-H460
OVCAR-8 = test system: OVCAR-8
MOLT-4 = test system: MOLT-4
RXF 393 = test system: RXF 393
HCT-15 = test system: HCT-15
HOP-92 = test system: HOP-92
T47D = test system: T47D
SF-268 = test system: SF-268
SK-MEL-28 = test system: SK-MEL-28
UO-31 = test system: UO-31
SW-620 = test system: SW-620
HCC 2998 = test system: HCC 2998
LOX IMVI = test system: LOX IMVI
NCI/ADR-RES = test system: NCI/ADR-RES
KM12 = test system: KM12
RPMI-8226 = test system: RPMI-8226
SF-295 = test system: SF-295
CAKI-1 = test system: CAKI-1
OVCAR-3 = test system: OVCAR-3
TK-10 = test system: TK-10
CCRF-CEM = test system: CCRF-CEM
SR = test system: SR

## CCC(=O)Nc1ccc(/N=N/N(C)C)cc1
M14
  GI50: > 100 µM (inactive)
SK-OV-3
  GI50: > 100 µM (inactive)
SF-539
  GI50: > 100 µM (inactive)
NCI-H23
  GI50: 7.26 µM (inactive)
HOP-62
  GI50: > 100 µM (inactive)
U-251
  GI50: > 100 µM (inactive)
HL-60
  GI50: 42.8 µM (inactive)
MDA-MB-435
  GI50: > 100 µM (inactive)
SK-MEL-5
  GI50: 53.7 µM (inactive)
UACC-62
  GI50: > 100 µM (inactive)
A549
  GI50: > 100 µM (inactive)
SK-MEL-2
  GI50: > 100 µM (inactive)
MDA-MB-231
  GI50: > 100 µM (inactive)
COLO 205
  GI50: 63.4 µM (inactive)
IGROV-1
  GI50: 2.87 µM (inactive)
HT-29
  GI50: > 100 µM (inactive)
ACHN
  GI50: > 100 µM (inactive)
PC-3
  GI50: > 100 µM (inactive)
786-0
  GI50: > 100 µM (inactive)
MCF7
  GI50: > 100 µM (inactive)
BT-549
  GI50: > 100 µM (inactive)
OVCAR-5
  GI50: > 100 µM (inactive)
K562
  GI50: 50.2 µM (inactive)
NCI-H226
  GI50: > 100 µM (inactive)
UACC-257
  GI50: > 100 µM (inactive)
Malme-3M
  GI50: 2.13 µM (inactive)
A498
  GI50: > 100 µM (inactive)
EKVX
  GI50: > 100 µM (inactive)
SNB-19
  GI50: > 100 µM (inactive)
OVCAR-4
  GI50: > 100 µM (inactive)
NCI-H522
  GI50: 14.4 µM (inactive)
HCT-116
  GI50: > 100 µM (inactive)
SN12C
  GI50: > 100 µM (inactive)
Hs-578T
  GI50: > 100 µM (inactive)
DU-145
  GI50: > 100 µM (inactive)
SNB-75
  GI50: > 100 µM (inactive)
NCI-H460
  GI50: > 100 µM (inactive)
OVCAR-8
  GI50: > 100 µM (inactive)
MOLT-4
  GI50: 6.73 µM (inactive)
RXF 393
  GI50: > 100 µM (inactive)
HCT-15
  GI50: > 100 µM
HOP-92
  GI50: 12.4 µM (inactive)
T47D
  GI50: 6.64 µM (inactive)
SF-268
  GI50: > 100 µM (inactive)
SK-MEL-28
  GI50: > 100 µM (inactive)
UO-31
  GI50: > 100 µM (inactive)
SW-620
  GI50: > 100 µM (inactive)
HCC 2998
  GI50: 1.66 µM (inactive)
LOX IMVI
  GI50: 50.9 µM (inactive)
NCI/ADR-RES
  GI50: > 100 µM (inactive)

## Cc1nc(=O)n2c(c1C(=O)Nc1ccc(Cl)cc1)NCC2
A498
  GI50: > 72.8 µM (inactive)
HOP-92
  GI50: > 79.4 µM (inactive)

## CC(C)=NOC(=O)Nc1cccc2c1OCO2
M14
  GI50: > 100 µM (inactive)
KM12
  GI50: 71.1 µM (inactive)
RPMI-8226
  GI50: > 100 µM (inactive)
SK-OV-3
  GI50: > 100 µM (inactive)
SF-539
  GI50: > 100 µM (inactive)
NCI-H23
  GI50: > 100 µM (inactive)
HOP-62
  GI50: > 100 µM (inactive)
SF-295
  GI50: > 100 µM (inactive)
U-251
  GI50: > 100 µM (inactive)
MDA-MB-435
  GI50: > 100 µM (inactive)
SK-MEL-5
  GI50: > 100 µM (inactive)
UACC-62
  GI50: 32.5 µM (inactive)
A549
  GI50: > 100 µM (inactive)
SK-MEL-2
  GI50: > 100 µM (inactive)
CAKI-1
  GI50: > 100 µM (inactive)
MDA-MB-231
  GI50: > 100 µM (inactive)
COLO 205
  GI50: > 100 µM (inactive)
IGROV-1
  GI50: > 100 µM (inactive)
HT-29
  GI50: > 100 µM (inactive)
ACHN
  GI50: 80.9 µM (inactive)
PC-3
  GI50: > 100 µM (inactive)
786-0
  GI50: > 100 µM (inactive)
MCF7
  GI50: > 100 µM (inactive)
OVCAR-5
  GI50: > 100 µM (inactive)
OVCAR-3
  GI50: > 100 µM (inactive)
NCI-H226
  GI50: > 100 µM (inactive)
UACC-257
  GI50: > 100 µM (inactive)
Malme-3M
  GI50: > 100 µM (inactive)
A498
  GI50: > 100 µM (inactive)
EKVX
  GI50: > 100 µM (inactive)
SNB-19
  GI50: > 100 µM (inactive)
OVCAR-4
  GI50: > 100 µM (inactive)
NCI-H522
  GI50: > 100 µM (inactive)
HCT-116
  GI50: > 100 µM (inactive)
SN12C
  GI50: > 100 µM (inactive)
Hs-578T
  GI50: 28.8 µM (inactive)
DU-145
  GI50: > 100 µM (inactive)
SNB-75
  GI50: > 100 µM (inactive)
NCI-H460
  GI50: > 100 µM (inactive)
OVCAR-8
  GI50: > 100 µM (inactive)
MOLT-4
  GI50: > 100 µM (inactive)
RXF 393
  GI50: > 100 µM (inactive)
HCT-15
  GI50: > 100 µM
HOP-92
  GI50: > 100 µM (inactive)
T47D
  GI50: > 100 µM (inactive)
SF-268
  GI50: > 100 µM (inactive)
SK-MEL-28
  GI50: > 100 µM (inactive)
UO-31
  GI50: > 100 µM (inactive)
SW-620
  GI50: > 100 µM (inactive)
HCC 2998
  GI50: > 100 µM (inactive)
TK-10
  GI50: > 100 µM (inactive)
LOX IMVI
  GI50: > 100 µM (inactive)
NCI/ADR-RES
  GI50: > 100 µM (inactive)

## Cn1c2ccccc2c2ccc3c(c21)C(=O)c1ccccc1C3=O
M14
  GI50: 27.2 µM (inactive)
KM12
  GI50: 27.8 µM (inactive)
CCRF-CEM
  GI50: 3.02 µM (inactive)
SR
  GI50: 3.29 µM (inactive)
RPMI-8226
  GI50: 12.2 µM (inactive)
SK-OV-3
  GI50: 15.8 µM (inactive)
SF-539
  GI50: 17.3 µM (inactive)
NCI-H23
  GI50: 15.7 µM (inactive)
HOP-62
  GI50: 18 µM (inactive)
SF-295
  GI50: 18.2 µM (inactive)
U-251
  GI50: 16.4 µM (inactive)
HL-60
  GI50: 2.75 µM (inactive)
MDA-MB-435
  GI50: 16 µM (inactive)
SK-MEL-5
  GI50: 13.2 µM (inactive)
UACC-62
  GI50: 16.7 µM (inactive)
A549
  GI50: 24.7 µM (inactive)
CAKI-1
  GI50: 22.2 µM (inactive)
MDA-MB-231
  GI50: 19.5 µM (inactive)
COLO 205
  GI50: 26.6 µM (inactive)
IGROV-1
  GI50: 13.8 µM (inactive)
HT-29
  GI50: 16.9 µM (inactive)
ACHN
  GI50: 12.4 µM (inactive)
PC-3
  GI50: 13 µM (inactive)
786-0
  GI50: 17.6 µM (inactive)
BT-549
  GI50: 21.1 µM (inactive)
OVCAR-5
  GI50: > 100 µM (inactive)
OVCAR-3
  GI50: 12.9 µM (inactive)
K562
  GI50: 11.8 µM (inactive)
NCI-H226
  GI50: 30.1 µM (inactive)
UACC-257
  GI50: 19.5 µM (inactive)
Malme-3M
  GI50: 5.86 µM (inactive)
A498
  GI50: > 10 µM (inactive)
EKVX
  GI50: 12.5 µM (inactive)
SNB-19
  GI50: 37.8 µM (inactive)
OVCAR-4
  GI50: 17.5 µM (inactive)
NCI-H522
  GI50: 15.1 µM (inactive)
HCT-116
  GI50: 17.3 µM (inactive)
SN12C
  GI50: 20.6 µM (inactive)
Hs-578T
  GI50: 14.1 µM (inactive)
DU-145
  GI50: 84.5 µM (inactive)
OVCAR-8
  GI50: 17.3 µM (inactive)
RXF 393
  GI50: 15.8 µM (inactive)
HCT-15
  GI50: 15.1 µM
HOP-92
  GI50: 18.9 µM (inactive)
T47D
  GI50: 11.7 µM (inactive)
SF-268
  GI50: 18.7 µM (inactive)
SK-MEL-28
  GI50: 14.6 µM (inactive)
UO-31
  GI50: 25.5 µM (inactive)
SW-620
  GI50: 28.2 µM (inactive)
HCC 2998
  GI50: 41.9 µM (inactive)
TK-10
  GI50: 14.4 µM (inactive)
LOX IMVI
  GI50: 15.9 µM (inactive)
NCI/ADR-RES
  GI50: 13.7 µM (inactive)
